Data published in patent US6207393A, “Inhibition of intracellular signal transduction by 14-3-3-binding peptides” (Washington University, priority 1999, dated 2001).
Where a SMILES comes first, the peptide text is derived from it. [ ]: non-standard residue; d: D form. pS = N[C@@H](COP(=O)(O)O)C(=O)O

Columns and labels:
14-3-3 beta [1] = molecular target: T1, 14-3-3 beta (Homo sapiens, UniProt P31946); assay: Surface plasmon resonance kinetics, 14-3-3 beta binding to phosphorylated Raf-259 peptide; conditions: isoform beta
T1 construct: made in house; host or cells: E. coli DH5α (vector pGEX-KT)
T1 sequence (P31946 1-246): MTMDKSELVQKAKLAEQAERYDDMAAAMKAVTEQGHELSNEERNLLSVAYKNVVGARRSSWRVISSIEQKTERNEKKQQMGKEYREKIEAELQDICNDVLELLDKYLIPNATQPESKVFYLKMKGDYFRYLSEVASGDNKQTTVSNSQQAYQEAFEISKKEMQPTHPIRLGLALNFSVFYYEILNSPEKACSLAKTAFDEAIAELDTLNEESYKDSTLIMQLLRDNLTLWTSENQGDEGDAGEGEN
Method: (§1) Because the surface plasmon resonance detects binding in real time, this method can be used to directly determine the rates of association (kon) and dissociation (koff). For these kinetic measurements, GST/14-3-3 fusion proteins were injected over a range of concentrations between 200 nM and 5 μM. The "on" rate, kon, was determined by calculating dR/dt for the initial linear portion of association using the Biaevaluation software (Pharmacia). Because ligand rebinding to the sensor chip can affect the "off" rate (koff, Panayotou et al. Mol Cell Biol 13:3567-76, 1993 which is incorporated by reference), we measured the "off" rate in the presence of 50 μM free ligand by using the coinject function of the Biacore. The "off" rate measured in the absence of 50 μM free ligand was approximately 10-fold lower.
(§2) There are seven known isoforms of 14-3-3 which form homo- and heterodimers in vivo. If different isoforms of 14-3-3 could bind to proteins with distinct specificities, heterodimeric forms of 14-3-3 might function as modular linker proteins, bringing together different proteins into a single complex. We were, therefore, interested in determining whether different 14-3-3 isoforms recognize phosphoserine in a sequence specific fashion. This hypothesis was tested by expressing and purifying three other 14-3-3 isoforms, eta, beta and tau, and measuring their affinity towards the panel of phosphorylated peptides generated above. Using the Surface Plasmon Resonance method, the "on" and "off" rates for 14-3-3 binding to the phosphorylated Raf-259 peptide were calculated (Table 6).

14-3-3 tau = molecular target: T2, 14-3-3 tau (Homo sapiens, UniProt P27348); assay: Surface plasmon resonance kinetics, 14-3-3 tau binding to phosphorylated Raf-259 peptide; conditions: isoform tau
T2 construct: made in house; host or cells: E. coli DH5α (vector pGEX-KT)
T2 sequence (P27348 1-245): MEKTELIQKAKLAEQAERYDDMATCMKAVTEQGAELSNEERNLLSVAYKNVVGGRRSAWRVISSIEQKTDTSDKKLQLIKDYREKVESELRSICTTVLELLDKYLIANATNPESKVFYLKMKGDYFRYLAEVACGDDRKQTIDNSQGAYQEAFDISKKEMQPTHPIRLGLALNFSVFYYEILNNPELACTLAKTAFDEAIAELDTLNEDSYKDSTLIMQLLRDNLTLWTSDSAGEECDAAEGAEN
Method: as §1, §2

14-3-3 beta [2] = molecular target: T1, 14-3-3 beta; assay: SPR competitive inhibition of 14-3-3 beta binding to phosphorylated Raf-259 peptide; conditions: isoform beta
Method: The ability of each peptide to inhibit binding of 14-3-3 zeta to the phosphorylated peptide was then tested in a range of concentrations between 1 and 50 μM. 14-3-3 zeta was prepared according to the methods in Example 1 and binding affinities and specificities were determined using the peptides in Table 2. The 14-3-3 zeta fusion proteins (0.5-1.0 μM) were pre-incubated with a given peptide at concentrations between 1 μM and 50 μM. 14-3-3 zeta was then infused across a sensor chip surface which had been previously coupled with the phosphorylated Raf-259 peptide (SEQ ID NO: 4). IC50 values were determined by plotting the concentration of competitor peptide required to achieve a 50% reduction in equilibrium binding.
as §2
Competitive inhibition with the mutated phosphorylated Raf-1 peptides was used to determine whether their specificities were similar (Table 7). In each case, the calculated IC50 s were very similar to those calculated for 14-3-3 zeta.

CC(C)C[C@H](N)C(=O)N[C@@H](CO)C(=O)N[C@@H](CCC(N)=O)C(=O)N[C@@H](CCCNC(=N)N)C(=O)N[C@@H](CCC(N)=O)C(=O)N[C@@H](CCCNC(=N)N)C(=O)N[C@@H](CO)C(=O)N[C@H](C(=O)N[C@@H](COP(=O)(O)O)C(=O)N[C@H](C(=O)N1CCC[C@H]1C(=O)N[C@@H](CC(N)=O)C(=O)N[C@H](C(=O)N[C@@H](Cc1c[nH]cn1)C(=O)N[C@@H](C)C(=O)O)C(C)C)[C@@H](C)O)[C@@H](C)O [pS-Raf-259] (H-LSQRQRST[pS]TPNVHA-OH)
Kd (14-3-3 beta [1]): 145 nM | koff (14-3-3 beta [1]): 0.0032 s⁻¹ | kon (14-3-3 beta [1]): 22000 M⁻¹ s⁻¹ | Kd (14-3-3 tau): 144 nM | koff (14-3-3 tau): 0.0036 s⁻¹ | kon (14-3-3 tau): 25000 M⁻¹ s⁻¹ | IC50 (14-3-3 beta [2]): 6 µM
